# Results as given in article PMC11864979, “First-in-class ultralong-target-residence-time p38α inhibitors as a mitosis-targeted therapy for colorectal cancer” (Nature Cancer, 2025).
# Where two headings read alike, the source gives them in different places.
# Columns and labels:
# Experiment in all cases: selectivity profiling in a panel of 340 wild-type kinases (Reaction Biology Europe)
# Type in all cases: binding
# 340 wild-type kinases [1] = biological target: T1, 340 wild-type kinases (Homo sapiens, UniProt O15264)
# T1 construct: purchased Reaction Biology Europe
# T1 sequence (O15264 1-365): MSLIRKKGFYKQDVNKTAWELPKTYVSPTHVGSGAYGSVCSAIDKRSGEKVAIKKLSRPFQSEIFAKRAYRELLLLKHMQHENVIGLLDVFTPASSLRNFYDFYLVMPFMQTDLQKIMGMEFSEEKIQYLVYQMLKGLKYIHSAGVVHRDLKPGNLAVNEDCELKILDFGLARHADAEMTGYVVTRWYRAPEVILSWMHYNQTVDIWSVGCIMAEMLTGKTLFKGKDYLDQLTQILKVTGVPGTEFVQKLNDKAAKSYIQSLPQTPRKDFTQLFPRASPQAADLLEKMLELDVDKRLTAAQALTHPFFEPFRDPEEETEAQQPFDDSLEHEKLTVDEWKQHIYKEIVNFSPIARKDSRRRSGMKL
# 340 wild-type kinases [2] = biological target: T2, 340 wild-type kinases (Homo sapiens, UniProt O94806)
# T2 construct: purchased Reaction Biology Europe
# T2 sequence (O94806 1-890): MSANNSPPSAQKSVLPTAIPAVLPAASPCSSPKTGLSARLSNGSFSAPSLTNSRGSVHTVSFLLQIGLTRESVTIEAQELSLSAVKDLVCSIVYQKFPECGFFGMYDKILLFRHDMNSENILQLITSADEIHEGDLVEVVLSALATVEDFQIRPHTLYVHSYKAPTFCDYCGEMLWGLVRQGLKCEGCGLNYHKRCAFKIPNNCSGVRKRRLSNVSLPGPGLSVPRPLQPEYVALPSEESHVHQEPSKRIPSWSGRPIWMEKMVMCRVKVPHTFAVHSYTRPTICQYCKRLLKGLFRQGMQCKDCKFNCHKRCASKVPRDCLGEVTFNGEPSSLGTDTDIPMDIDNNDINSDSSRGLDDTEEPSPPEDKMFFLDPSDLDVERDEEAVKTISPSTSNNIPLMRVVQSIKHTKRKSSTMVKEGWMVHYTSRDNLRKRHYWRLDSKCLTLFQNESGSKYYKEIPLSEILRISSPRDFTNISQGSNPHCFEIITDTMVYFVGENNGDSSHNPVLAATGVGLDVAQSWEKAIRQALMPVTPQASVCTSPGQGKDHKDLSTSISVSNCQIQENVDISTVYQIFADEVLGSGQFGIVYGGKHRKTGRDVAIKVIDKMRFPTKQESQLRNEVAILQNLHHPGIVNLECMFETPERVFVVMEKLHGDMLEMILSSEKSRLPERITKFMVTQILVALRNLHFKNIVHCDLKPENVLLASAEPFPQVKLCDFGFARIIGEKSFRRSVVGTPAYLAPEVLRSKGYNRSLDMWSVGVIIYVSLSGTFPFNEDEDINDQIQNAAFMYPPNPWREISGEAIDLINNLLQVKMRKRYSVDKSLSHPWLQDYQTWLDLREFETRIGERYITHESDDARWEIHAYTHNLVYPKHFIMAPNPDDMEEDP
# 340 wild-type kinases [3] = biological target: T3, 340 wild-type kinases (Homo sapiens, UniProt P32298)
# T3 construct: purchased Reaction Biology Europe
# T3 sequence (P32298 whole entry): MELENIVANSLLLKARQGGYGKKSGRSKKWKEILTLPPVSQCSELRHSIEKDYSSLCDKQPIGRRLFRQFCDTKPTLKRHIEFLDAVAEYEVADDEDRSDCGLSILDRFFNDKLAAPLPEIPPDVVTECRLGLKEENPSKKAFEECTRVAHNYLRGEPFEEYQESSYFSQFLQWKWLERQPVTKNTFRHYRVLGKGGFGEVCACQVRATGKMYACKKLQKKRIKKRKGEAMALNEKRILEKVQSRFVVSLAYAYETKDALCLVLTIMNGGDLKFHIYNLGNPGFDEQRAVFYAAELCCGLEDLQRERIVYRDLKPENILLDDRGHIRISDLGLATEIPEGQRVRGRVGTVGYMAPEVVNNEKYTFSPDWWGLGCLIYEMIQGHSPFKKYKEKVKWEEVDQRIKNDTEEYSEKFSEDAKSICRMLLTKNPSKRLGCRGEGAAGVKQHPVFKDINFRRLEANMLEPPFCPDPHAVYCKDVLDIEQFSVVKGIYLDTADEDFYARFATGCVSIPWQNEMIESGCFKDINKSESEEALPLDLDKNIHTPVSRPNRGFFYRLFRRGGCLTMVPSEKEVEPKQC
# 340 wild-type kinases [4] = biological target: T4, 340 wild-type kinases (Homo sapiens, UniProt P48729)
# T4 construct: purchased Reaction Biology Europe
# T4 sequence (P48729 whole entry): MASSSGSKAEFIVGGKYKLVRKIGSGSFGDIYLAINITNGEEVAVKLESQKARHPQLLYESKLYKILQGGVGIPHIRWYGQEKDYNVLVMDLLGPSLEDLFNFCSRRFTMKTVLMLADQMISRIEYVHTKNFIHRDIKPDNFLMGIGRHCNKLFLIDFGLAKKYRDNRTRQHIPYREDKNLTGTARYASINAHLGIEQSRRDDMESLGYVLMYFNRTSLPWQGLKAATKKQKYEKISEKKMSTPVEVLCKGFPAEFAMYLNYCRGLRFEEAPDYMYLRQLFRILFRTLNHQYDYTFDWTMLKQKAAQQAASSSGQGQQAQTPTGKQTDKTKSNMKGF
# 340 wild-type kinases [5] = biological target: T5, 340 wild-type kinases (Homo sapiens, UniProt P51955)
# T5 construct: purchased Reaction Biology Europe
# T5 sequence (P51955 1-445): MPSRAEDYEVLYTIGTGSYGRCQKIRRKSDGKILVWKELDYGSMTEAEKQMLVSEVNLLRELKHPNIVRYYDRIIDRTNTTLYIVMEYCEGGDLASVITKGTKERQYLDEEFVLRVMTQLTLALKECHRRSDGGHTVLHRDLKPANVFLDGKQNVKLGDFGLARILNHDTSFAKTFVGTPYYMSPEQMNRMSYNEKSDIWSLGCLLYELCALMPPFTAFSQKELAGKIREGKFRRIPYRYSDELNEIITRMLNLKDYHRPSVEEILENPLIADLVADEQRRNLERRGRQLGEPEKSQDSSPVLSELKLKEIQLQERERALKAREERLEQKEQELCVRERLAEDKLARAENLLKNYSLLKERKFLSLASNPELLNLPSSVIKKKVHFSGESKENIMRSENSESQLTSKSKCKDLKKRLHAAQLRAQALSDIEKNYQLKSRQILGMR
# 340 wild-type kinases [6] = biological target: T6, 340 wild-type kinases (Homo sapiens, UniProt Q05513)
# T6 construct: purchased Reaction Biology Europe
# T6 sequence (Q05513 1-592): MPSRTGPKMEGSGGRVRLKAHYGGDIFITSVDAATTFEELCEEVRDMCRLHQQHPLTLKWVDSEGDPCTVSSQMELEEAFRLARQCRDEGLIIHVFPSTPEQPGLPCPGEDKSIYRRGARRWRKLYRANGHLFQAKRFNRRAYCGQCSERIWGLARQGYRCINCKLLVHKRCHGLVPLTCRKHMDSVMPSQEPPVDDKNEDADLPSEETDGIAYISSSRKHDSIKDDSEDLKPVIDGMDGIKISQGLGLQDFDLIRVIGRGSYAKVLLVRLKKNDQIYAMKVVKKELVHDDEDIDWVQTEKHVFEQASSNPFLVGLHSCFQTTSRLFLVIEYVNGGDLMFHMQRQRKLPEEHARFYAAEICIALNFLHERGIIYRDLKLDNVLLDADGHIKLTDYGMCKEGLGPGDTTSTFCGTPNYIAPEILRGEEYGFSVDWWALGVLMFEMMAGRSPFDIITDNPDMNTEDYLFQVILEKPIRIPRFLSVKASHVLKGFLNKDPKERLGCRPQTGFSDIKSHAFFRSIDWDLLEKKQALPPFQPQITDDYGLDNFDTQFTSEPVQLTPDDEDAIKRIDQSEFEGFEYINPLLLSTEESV
smiles,measurement,setting,value
CNC(=O)c1ccc2c(c1)C(=O)c1ccc(Nc3ccc(F)c(NC(=O)C4CC4)c3)cc1CC2 [Compound 2015],remaining activity at 0.2 µM,"340 wild-type kinases [1]; 0.2 µM 2015, read-out: p38delta residual activity",101%
same,remaining activity at 1 µM,"340 wild-type kinases [1]; 1 µM 2015, read-out: p38delta residual activity",90.6%
same,remaining activity at 0.2 µM,"340 wild-type kinases [1]; p38delta, 0.2 µM, read-out: residual activity",101%
same,remaining activity at 1 µM,"340 wild-type kinases [1]; p38delta, 1 µM, read-out: residual activity",90.6%
same,remaining activity at 0.2 µM,"340 wild-type kinases [2]; 0.2 µM 2015, read-out: PKCnu residual activity",88.9%
same,remaining activity at 1 µM,"340 wild-type kinases [2]; 1 µM 2015, read-out: PKCnu residual activity",96.9%
same,remaining activity at 0.2 µM,"340 wild-type kinases [2]; PKCnu, 0.2 µM, read-out: residual activity",88.9%
same,remaining activity at 1 µM,"340 wild-type kinases [2]; PKCnu, 1 µM, read-out: residual activity",96.9%
same,remaining activity at 0.2 µM,"340 wild-type kinases [3]; 0.2 µM 2015, read-out: GRK4 residual activity",123%
same,remaining activity at 1 µM,"340 wild-type kinases [3]; 1 µM 2015, read-out: GRK4 residual activity",104%
same,remaining activity at 0.2 µM,"340 wild-type kinases [3]; GRK4, 0.2 µM, read-out: residual activity",123%
same,remaining activity at 1 µM,"340 wild-type kinases [3]; GRK4, 1 µM, read-out: residual activity",104%
same,remaining activity at 0.2 µM,"340 wild-type kinases [4]; 0.2 µM 2015, read-out: CK1alpha1 residual activity",98.6%
same,remaining activity at 0.2 µM,"340 wild-type kinases [4]; CK1alpha1, 0.2 µM, read-out: residual activity",98.6%
same,remaining activity at 1 µM,"340 wild-type kinases [4]; CK1alpha1, 1 µM, read-out: residual activity",94.9%
same,remaining activity at 0.2 µM,"340 wild-type kinases [5]; 0.2 µM 2015, read-out: NEK2 residual activity",104%
same,remaining activity at 1 µM,"340 wild-type kinases [5]; 1 µM 2015, read-out: NEK2 residual activity",95%
same,remaining activity at 0.2 µM,"340 wild-type kinases [5]; NEK2, 0.2 µM, read-out: residual activity",104%
same,remaining activity at 1 µM,"340 wild-type kinases [5]; NEK2, 1 µM, read-out: residual activity",95%
same,remaining activity at 0.2 µM,"340 wild-type kinases [6]; 0.2 µM 2015, read-out: PKCzeta residual activity",126%
same,remaining activity at 0.2 µM,"340 wild-type kinases [6]; 0.2 µM 2015, read-out: PKMzeta residual activity",106%
same,remaining activity at 1 µM,"340 wild-type kinases [6]; 1 µM 2015, read-out: PKCzeta residual activity",111%
same,remaining activity at 1 µM,"340 wild-type kinases [6]; 1 µM 2015, read-out: PKMzeta residual activity",102%
same,remaining activity at 0.2 µM,"340 wild-type kinases [6]; PKCzeta, 0.2 µM, read-out: residual activity",126%
same,remaining activity at 1 µM,"340 wild-type kinases [6]; PKCzeta, 1 µM, read-out: residual activity",111%
